Assays:
A-549 [1] = experiment: Inhibition of cells growth by colorimetric assay (SRB), A-549; format: cell-based; settings: SRB, 48 hours exposure; for GI50 / LC50 (concentration for 50% cell killing): Homo sapiens, A549, 48 h; for A-549 TGI / GI50: A-549; for GI50: read-out: A-549 GI50; for LC50 (concentration for 50% cell killing): read-out: A-549 LC50, A-549
Procedure, shortened: (§1)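 Cells in RPMI 1640 with 10% FBS were seeded at 5×10^3 per well, allowed 18 h to attach, then exposed to compound (10 to 10^−8 μg/ml, in DMSO/EtOH/PBS 0.5:0.5:99) for 48 h. After TCA fixation and SRB staining, bound dye was solubilized in Tris and OD read at 490 nm; GI, TGI and LC derived from triplicates.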

HT-29 [2] = experiment: Inhibition of cells growth by colorimetric assay (SRB), HT-29; format: cell-based; settings: SRB, 48 hours exposure; for GI50 / LC50 (concentration for 50% cell killing): Homo sapiens, HT-29, 48 h; for HT-29 TGI / GI50: HT-29; for GI50: read-out: HT-29 GI50; for LC50 (concentration for 50% cell killing): read-out: HT-29 LC50, HT-29
Procedure, shortened: as §1

P-388 = experiment: Inhibition of cell growth by counting cells, P-388; format: cell-based, mouse; settings: Mus musculus, P388, 72 h; three days of incubation; read-out: IC50 (molar) P-388
Procedure, shortened: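 Mouse P-388 lymphoid neoplasm suspension cells seeded at 1×10^4 cells/well in EMEM 5% FCS containing graded sample concentrations, in duplicate alongside drug-free growth controls. Cells counted by Coulter counter; % growth vs untreated gives dose-response curves, IC50 = concentration producing 50% growth inhibition.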

MEL-28 = experiment: Inhibition of cell growth by counting cells, MEL-28; format: cell-based, human; settings: Homo sapiens, SK-MEL-28, 72 h; three days of incubation; read-out: IC50 (molar) MEL-28
Procedure, shortened: (§2)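 Monolayer lines were plated at 1×10^4 cells per well with compound in medium containing 5% FCS. After a 3-day incubation at 37° C, crystal violet staining gave an approximate IC50, and cell counting of duplicate wells gave the dose-response IC50.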

HT-29 [3] = experiment: Inhibition of cell growth by counting cells, HT-29; format: cell-based, human; settings: Homo sapiens, HT-29, 72 h; three days of incubation; read-out: IC50 (molar) HT-29
Procedure, shortened: as §2

A-549 [4] = experiment: Inhibition of cell growth by counting cells, A-549; format: cell-based, human; settings: Homo sapiens, A549, 72 h; three days of incubation; read-out: IC50 (molar) A-549
Procedure, shortened: as §2

Excerpt for Heart: (§3) Toxicity was asssessed by the methods reported in Toxicology in Vitro, 15 (2001) 571-577, J. Luber Narod et al.: “Evaluation of the use of in vitro methodolodies as tools for screening new compounds for potential in vivo toxicity”.
Excerpt for Kidney: as §3
Excerpt for Liver: as §3
Excerpt for Myelo: as §3
Excerpt for Skeletal: as §3

Structure (SMILES) | Toxicity Data Heart (Heart) | Toxicity Data Myelo (Myelo) | Toxicity Data Kidney (Kidney) | Toxicity Data Skeletal (Skeletal) | Toxicity Data Liver (Liver) | A-549 TGI (A-549 [1]) | GI50 (A-549 [1]) | LC50 (concentration for 50% cell killing) (A-549 [1]) | HT-29 TGI (HT-29 [2]) | GI50 (HT-29 [2]) | LC50 (concentration for 50% cell killing) (HT-29 [2]) | IC50 (P-388) | IC50 (MEL-28) | IC50 (HT-29 [3]) | IC50 (A-549 [4])
C=COC(=O)Oc1cc2c(cc1OC)[C@@]1(CS[C@@H]3c4c(OC(C)=O)c(C)c5c(c4[C@H](COC1=O)N1C3[C@H]3c4c(cc(C)c(OC)c4OC(=O)OC=C)C[C@@H]([C@@H]1O)N3C)OCO5)NCC2 (some centres unmarked) [Compound 92] | 2.80E-08 | 1.92E-08 | 1.35E-08 | 1.21E-08 | 2.30E-08 | 7.77E-09 | 3.33 nM | 33.3 nM | 1.11E-09 | 1.11 nM | 55.5 nM | – | – | – | –
CCN1CCc2cc(O)c(OC)cc2[C@@]12CS[C@@H]1c3c(OC(C)=O)c(C)c4c(c3[C@H](COC2=O)N2C1[C@H]1c3c(cc(C)c(OC)c3O)C[C@@H]([C@@H]2O)N1C)OCO4 (some centres unmarked) [Compound 94] | 6.66E-08 | 1.13E-08 | 3.49E-09 | 1.44E-09 | 1.24E-08 | – | – | – | – | – | – | 0.152 nM | 0.152 nM | 0.152 nM | 0.152 nM
COc1cc2c(cc1O)CCN[C@]21CS[C@@H]2c3c(OC(C)=O)c(C)c4c(c3[C@H](COC1=O)N1C2[C@H]2c3c(cc(C)c(OC)c3OC)C[C@@H]([C@@H]1O)N2C)OCO4 (some centres unmarked) [Compound 98] | 4.98E-08 | 3.79E-08 | 1.08E-06 | 1.24E-08 | 4.21E-08 | – | – | – | – | – | – | – | – | 0.129 nM | 0.129 nM
C=COC(=O)Oc1cc2c(cc1OC)[C@@]1(CS[C@@H]3c4c(OC(C)=O)c(C)c5c(c4[C@H](COC1=O)N1C3[C@H]3c4c(cc(C)c(OC)c4OC(=O)OC=C)C[C@@H]([C@@H]1O)N3C)OCO5)N(C(=O)OC=C)CC2 (some centres unmarked) [Compound 99] | 1.13E-07 | 1.45E-07 | 2.56E-08 | 9.71E-08 | 4.80E-08 | 9.96E-08 | 43.5 nM | 10300 nM | 1.03E-07 | 34.3 nM | 10300 nM | – | – | – | –
CCCC(=O)Oc1c(C)c2c(c3c1[C@H]1SC[C@]4(NCCc5cc(O)c(OC)cc54)C(=O)OC[C@@H]3N3C1[C@H]1c4c(cc(C)c(OC)c4O)C[C@@H]([C@@H]3O)N1C)OCO2 (some centres unmarked) [Compound 163] | 4.80E-07 | 2.38E-07 | 6.33E-07 | 2.53E-06 | 9.80E-07 | 2.53E-09 | 0.38 nM | 8.86 nM | 1.14E-09 | 0.38 nM | 3.8 nM | – | – | – | –
C=CCOC(=O)Oc1c(C)c2c(c3c1[C@H]1SC[C@]4(NCCc5cc(O)c(OC)cc54)C(=O)OC[C@@H]3N3C1[C@H]1c4c(cc(C)c(OC)c4O)C[C@@H]([C@@H]3O)N1C)OCO2 (some centres unmarked) [Compound 165] | 2.79E-08 | 2.87E-08 | 1.89E-08 | 1.47E-08 | 1.68E-08 | 3.73E-10 | 0.124 nM | 1.24 nM | 3.73E-10 | 0.249 nM | 0.995 nM | – | – | – | –
C=CCOc1c(C)c2c(c3c1[C@H]1SC[C@]4(NCCc5cc(O)c(OC)cc54)C(=O)OC[C@@H]3N3C1[C@H]1c4c(cc(C)c(OC)c4O)C[C@@H]([C@@H]3O)N1C)OCO2 (some centres unmarked) [Compound 183] | 3.72E-08 | 2.39E-08 | 6.72E-03 | 2.67E-08 | 3.03E-08 | – | – | – | – | – | – | – | – | 0.132 nM | 0.132 nM
CCCCCCCC(=O)Oc1cc2c(cc1OC)[C@@]1(CS[C@@H]3c4c(OC(C)=O)c(C)c5c(c4[C@H](COC1=O)N1C3[C@@H]3N[C@@H](Cc4cc(C)c(OC)c(O)c43)[C@@H]1O)OCO5)NCC2 (some centres unmarked) [Compound 213] | 1.82E-07 | 2.70E-08 | 1.48E-08 | 1.72E-07 | 3.93E-08 | – | – | – | – | – | – | – | – | 0.114 nM | 0.114 nM
